# Where two headings read alike, the source gives them in different places.
# Experiments:
# [1] = tested on: HL60; test: MTT cell viability, HL60; type: cell-based, human; conditions: for IC50: MTT, 48 hours, Mean ± SD, read-out: Growth Inhibition IC50 HL-60; for response of leukemia cell line HL60 to treatment: in words, from Table 1
# Procedure: (§1) Cell lines used in the present disclosure include human liver carcinonoma cell line HepG2, human bladder carcinoma cell line BFTC905, human colon carcinoma cell lines HT29 and SW480, and human leukemia cell lines HL60 and Jurkat T, and mouse lymphocytic leukemia cell line L1210. Each cell lines were cultured and maintained in Dulbecco's modified Eagle media (DMEM) or RPMI 1640 medium supplemented with 10% heat inactivated fetal bovine serum (FBS), 1% penicillin/streptomycin, in 5% CO2195% air at 37° C.
# (§2) The absorbance of the solution at 540 nm was measured by spectrophotometer. The IC50 values were defined as the drug concentration that inhibit 50% cell growth by setting the viability of untreated cells as 100%. Values were represented as the mean±SD from at least 3 independent experiments.
# (§3) Effects of the compounds of formula (I) of this disclosure, specifically, NOC15 and NC 15, on HepG2 cells (liver carcinoma), BFTC905 (bladder carcinoma), HT29 (colon carcinoma), SW480 (colon carcinoma) and HL60 (leukemia) were assessed by cell viability analysis in accordance with procedures described above, in which compound 2, and other known anti-cancer agents including 5-FU, cisplatin and doxorubicin were respectively used as positive controls.
# [2] = tested on: HT29; test: MTT cell viability, HT29; type: cell-based, human; conditions: Mean ± SD, read-out: Growth Inhibition IC50 HT-29
# Procedure: as §1, §2, §3
# [3] = tested on: SW480; test: MTT cell viability, SW480; type: cell-based, human; conditions: Mean ± SD, read-out: Growth Inhibition IC50 SW480
# Procedure: as §1, §2, §3
# [4] = tested on: HepG2 cells; test: MTT cell viability, HepG2; type: cell-based, human
# Procedure: as §1, §2, §3
# In this example, effects of NOC15 or NC15 on HepG2 cells were assessed by cell viability analysis in accordance with procedures described above, in which compound 2 was used as a positive control.
# [5] = tested on: human leukemia cells (Jurkat T cells); test: Cell viability (CCK-8), PMAI activated leukemia Jurkat T cells model; type: cell-based
# Procedure: (§4) The cell viability assays were performed in 96-well plates. The 100 μl of cell suspensions (NHL or Jurkat T cells, 5×10^3 cells/well, serum-free medium) were inoculated in the wells and the plates were pre-incubated in the incubator for 24 hours (pre-incubated for 22 hours and stimulated with PMA 5 ng/ml plus ionomycin 250 ng/ml for 2 hours in PMAI-treated groups). Then, various concentrations of norcantharidin (0, 2, 4, 15, 30 and 60 μM) or NOC15 (0, 0.25, 0.5, 1, 2 and 4 μM) were added into the culture media in the wells. After 24 hours of incubation, the cell viability of NHL and Jurkat T cells was measured by cell counting kit-8 (CCK-8, Sigma). The half maximal inhibitory concentrations (IC50) of norcantharidin and NOC15 on Jurkat T cells and NHL cells were calculated.
# (§5) In this example, a model of phorbol 12-myristate 13-acetate plus ionomycin (PMAI) activated leukemia Jurkat T cells model was employed to investigate the effects of the NOC15 on human leukemia cells (Jurkat T cells) and human lymphoblast cells (NHL).
# [6] = tested on: human lymphoblast cells (NHL); test: Cell viability (CCK-8), normal lymphoblast cells; type: cell-based; conditions: 24 hours (NC15: 24 and 48 hours), FIG. 4, FIG. 6
# Procedure: as §4, §5
# [7] = tested on: HepG2 cells; test: Apoptotic analysis annexin-V/PI flow cytometry; type: cell-based, human; conditions: 10-60 μM, 48 hours, FIG. 3
# Procedure: The percentage of apototic cells was determined according to the manufacturer's protocol by using an annexin-V/FITC kit/propidium iodine (PI) flow cytometer. To facilitate the detection of apoptosis, the treated cells were centrifuged for 5 min at a speed of 1,000×g at room temperature, and then resuspended and washed once with 5 mL PBS before being stained with annexin-V/PI (apoptosis detection kit, R&D Systems, Taipei, Taiwan).
# (§6) HepG2 cells were treated with 10-60 μM of the test compounds for 48 hours, then cell cycle distribution and apoptosis analysis was analyzed by flow cytometry, with the subG1 phase being stained with propidium idoine (PI). Results are illustrated in FIGS. 2 and 3.
# [8] = tested on: HepG2 cells; test: Cell cycle distribution by flow cytometry (PI), HepG2; type: cell-based, human; conditions: 48 hours, FIG. 2
# Procedure: (§7) Cultured cells with or without pre-treatment of the compounds of this invention (i.e., norcantharidin, NOC15, or NC15, 10-60 μM for 48 hours) were harvested from the cultured media and fixed by incuating with 75% iced cold ehtanol and kept at −20° C. until analysis. The fixed cells were then washed with PBS, and treated with […] (200 μg/mL, 500 μL) for about 1.5 hour at 37° C. Precipitated cells were collected by centrifugation and re-suspended in a buffer solution containing propidium iodine (PI) (40 μg/ml) and incubated in the dark for 20 min at 20-25° C. before being subject to flow cytometry analysis, where cell numbers at respective cell cycles were determined.
# as §6
# [9] = tested on: HepG2 cells; test: Hoechst 33528 staining, nuclear morphological changes; type: cell-based, human; conditions: 40 μM, 48 hours, FIG. 1
# Procedure: Staining with Hoechst 33528 was performed according to the method described previously (Huang et al., Cytotechnology 2009, 59, 201-208). Briefly, cells were treated with 40 μM norcantharidin, NOC15, or NC15 for 48 hours, then washed with PBS saline and stained with Hoechst 33528 (Sigma, St. Louis, Mo., USA) at a final concentration of 10 μg/mL. The slides were examined under a fluorescence microscope. Cells with a small nucleus, a high fluorescence intensity (due to chromatin condensation) or nuclear fragmentation were considered apoptotic.
# To further investigate the role of apoptosis in the cytotoxicity of NOC15 and NC15, HepG2 cells were incubated with compound 2, NOC15 and NC15, respectively, for 48 hours; then were stained with Hoechst 33528 and examined by fluorescence microscope for any topical morphological changes.
# [10] = tested on: BFTC905; test: MTT cell viability, BFTC905; type: cell-based, human; conditions: Mean ± SD, read-out: Growth Inhibition IC50 BFTC905
# Procedure: as §1, §2, §3
# [11] = tested on: Jurkat T cells; test: Cell cycle distribution by flow cytometry, Jurkat T cells; type: cell-based, human; conditions: for percentage of cells in subG1 phase: FIG. 5, FIG. 7
# Procedure: as §7
# Cell cycle distribution was determined by flow cytometry as described in the “Materials and Methods” section. Results is depicted in FIG. 5.
# In this example, Jurkat T cells were treated with or without NC15 (2.513 μM) for 24 or 48 hours before being subject to cell cycle analysis. Results are depicted in FIG. 7.
# [12] = tested on: normal hepatic cells; test: Ex vivo growth of normal hepatic cells; type: cell-based; conditions: at about 8.2 μM
# [13] = Body weight of treated animals; type: in vivo, mice; conditions: 18 mg/Kg, compared with healthy normal control, FIG. 11
# Procedure: (§8) To inoculate tumor, L1210 cells (1×10^6 cells per injection) were injected either subcutaneously or intraperitoneally to lab animals to generate tumors on day 1. After 7 days, NOC15 or NC15 (diluted in normal saline) was administered intra-peritoneally at a dose of 18 mg/kg every day for 7 days. The average body weight (BW) of the animals was measured daily.
# (§9) Mice were inoculated with L1210 tumor cells in accordance with the procedures described in the section of “Materials and Methods.” For in vivo therapy, animals were given 18 mg/Kg NOC15 or NC15 by intra-peritoneal route, for a period of at least 7 days. Tumor size, animal body weight, respective weights of liver and spleen, as well as the white blood cell count of each animal were then measured respectively at the indicated time. Results are depicted in FIGS. 8 to 11, respectively.
# [14] = tested on: L1210 cells; test: Syngeneic L1210 tumor in vivo therapy; set-up: species or system DBA/2 mice
# Procedure: The DBA/2 mice (about 7 weeks old, 18-22 g) were obtained from BioLASCO Taiwan Co., Ltd. All mice were housed in specific pathogen-free condition with ad libitum access to water and laboratory chow. A solution of L1210 cells was injected into the subcutaneous tissue to establish a syngeneic tumor. Alternatively, the L1210 cells was injected peritoneally. All animal experiments were performed in accordance with the guidelines of the Animal Welfare Committee of Taipei Veterans General Hospital (Taiwan, R.O.C.).
# as §8
# After treatment, mice were sacrificed, and their tumors, livers and spleens were harvested and weighted, respectively; and white blood cells (WBC) counts were also measured.
# as §9
# [15] = MTT, 48 hours, Mean ± SD, read-out: Growth Inhibition IC50 HepG2
# [16] = Homo sapiens, BFTC-905, 48 hours
# [17] = Homo sapiens, HepG2, 24 h, Mean ± SD, read-out: Growth Inhibition On Hepatic Cancer Cells IC50 24 hrs
# [18] = Homo sapiens, HepG2, 48 h, MTT, 48 hours, Mean ± SD, read-out: Growth Inhibition IC50 HepG2
# [19] = Homo sapiens, HepG2, 48 h, Mean ± SD, read-out: Growth Inhibition On Hepatic Cancer Cells IC50 48 hrs
# [20] = Homo sapiens, HepG2, 72 h, Mean ± SD, read-out: Growth Inhibition On Hepatic Cancer Cells IC50 72 hrs
SMILES,IC50 [1],response of leukemia cell line HL60 to treatment [1],IC50 ([2]; 48 hours),IC50 ([3]; 48 hours),"IC50 [4, 15]",percentage of apoptotic cells / cell death [7],nuclear morphological changes (apoptosis features) [9],"IC50 ([1]; Homo sapiens, HL-60)","IC50 ([2]; Homo sapiens, HT-29, 48 hours)","IC50 ([3]; Homo sapiens, SW480, 48 hours)","IC50 [10, 16]","IC50 [4, 17]","IC50 [4, 18]","IC50 [4, 19]","IC50 [4, 20]",further results
"N.N.[Cl][Pt][Cl] [Cisplatin, cisplatin]",> 100 µM,did not respond well,24.1 ± 0.1 µM,40.7 ± 1.2 µM,36.1 ± 3.1 µM,,,,,,,,,,,
"O=C1OC(=O)C2C3CCC(O3)C12 (stereo not drawn) [Compound 2, 7-oxabicyclo[2.2.1]heptane-2,3-dicarboxylic anhydride, reference compound]",,,,,,cytoxic effect was only observed when high concentration of compound 2 was used,Significant morphological features of apotosis,> 100 µM,19.5 ± 0.2 µM,49.1 ± 8.4 µM,18.9 ± 0.3 µM,48 ± 0.7 µM,42 ± 1.8 µM,42 ± 1.8 µM,22.8 ± 0.6 µM,"cytotoxicity to leukemia Jurkat T cells ([5]; 24 hours (NC15: 24 and 48 hours), FIG. 4, FIG. 6): toxic; percentage of viable cells if pre-treated with PMA ([5]; PMA plus ionomycin pre-treatment, FIG. 4): increased slightly; cytotoxicity to normal lymphatic/lymphoblast cells (NHL) [6]: did not possess significant cytotoxicity; fraction of apoptotic cells (subG1) ([8]; 10 μM): only a small fraction of apoptotic cells; fraction of apoptotic cells (subG1) ([8]; 20 μM): 1.6%; fraction of apoptotic cells (subG1) ([8]; 60 μM): 16.7%"
"O=c1[nH]cc(F)c(=O)[nH]1 [Compound 5-FU, 5-FU]",> 100 µM,did not respond well,> 100 µM,32.7 ± 8.3 µM,40.2 ± 7.6 µM,,,,,,,,,,,IC50 ([10]; 48 hours): > 100 µM
"CC(C)=CCCC(C)=CCCC(C)=CCON1C(=O)C2C3CCC(O3)C2C1=O (stereo not drawn) [Compound 9, N-farnesyloxy-7-oxabicyclo[2.2.1]heptane-2,3-dicarboximide]",,did respond,,,,dose-dependent,Significant morphological features of apotosis,39 ± 1.1 µM,9.7 ± 1.7 µM,18.5 ± 2.3 µM,11.3 ± 1 µM,10.7 ± 0.2 µM,8.3 ± 1.3 µM,8.3 ± 1.3 µM,8.2 ± 0.6 µM,"accumulation of cells in G2/M phase ([8]; 10-60 μM): inducing the accumulation of cells in G2/M phase; percentage of cells in subG1 phase ([11]; treated 24 hours (NC15 2.513 μM)): increased; percentage of cells in subG1 phase ([11]; treated 48 hours (NC15 2.513 μM)): increased; percentage of cells in G2/M phase ([11]; treated 48 hours, FIG. 5C): increased; IC50 ([4]; Homo sapiens, HepG2, hepatic cancerous cells, time not given, read-out: concentration inhibiting ex vivo growth of hepatic cancerous cells for about 50%): ~8.2 µM; effect on normal hepatic cells [12]: un-affected; total body weight along the course of treatment [13]: gradually improved the total body weight; weight of liver ([14]; IP-inoculated tumor, 18 mg/kg i.p., FIG. 9B): improved significantly; weight of spleen ([14]; IP-inoculated tumor, 18 mg/kg i.p., FIG. 9C): improved significantly; increase in life span ([14]; SC-inoculated tumors, 18 mg/kg i.p. daily, FIG. 8A): about 40%; weight of s.c. tumor ([14]; SC-inoculated, 18 mg/kg i.p., FIG. 9A): Significant reduction; white blood cell (WBC) counts ([14]; day 14, SC- or IP-injected L1210, 18 mg/kg i.p., FIG. 10): significant reductions"
"COc1cccc2c1C(=O)c1c(O)c3c(c(O)c1C2=O)C[C@@](O)(C(=O)CO)C[C@@H]3O[C@H]1C[C@H](N)[C@H](O)[C@H](C)O1 [Doxorubicin, doxorubicin]",,,,,,,,14.3 ± 0.9 µM,1.7 ± 0.2 µM,0.5 ± 0.1 µM,,,0.3 µM,,,

# — US9359373B1, “Lipophilic N-substituted norcantharimide derivatives and uses thereof” (priority 2014, dated 2016)
